Data published in article PMC9164233 (ACS Organic & Inorganic Au, 2022).

What was measured:
Test in all cases: Cell viability assay
[1] = system: HMLER CD24^low/CD44^high cells; type: cell-based, human; conditions: 72 h
[2] = system: MCF10A cells; type: cell-based; conditions: Homo sapiens, MCF-10A, 72 h, read-out: Antiproliferative activity IC50, MCF10A
[3] = system: HMLER CD24^high/CD44^low cells; type: cell-based; conditions: Homo sapiens, Epithelial cell, 72 h, read-out: Antiproliferative activity IC50, HMLER CD24^high/CD44^low

**Q.** Which “SI (HMLER) = IC50(HMLER CD24^high/CD44^low)/IC50(HMLER CD24^low/CD44^high)” value ([1]; selectivity for the mesenchymal state) does the source give for `CC[C@@H](C(=O)[C@@H](C)[C@@H](O)[C@H](C)[C@@H]1O[C@@H]([C@@H](CC)C(=O)O)CC[C@@H]1C)[C@H]1O[C@]2(C=C[C@@H](O)[C@]3(CC[C@@](C)([C@H]4CC[C@](O)(CC)[C@H](C)O4)O3)O2)[C@H](C)C[C@@H]1C` [Sal, salinomycin] here?
**A.** 3.1

**Q.** And the IC50 ([1]; Homo sapiens, read-out: Antiproliferative activity IC50, HMLER CD24^low/CD44^high)?
**A.** 1390 ± 100 nM

**Q.** And the IC50 [2]?
**A.** 1130 ± 140 nM

**Q.** What about the IC50 [3] of the same compound?
**A.** 4360 ± 500 nM
